Patent publication US8748461B2, “Metalloenzyme inhibitor compounds” (Viamet Pharmaceuticals, Inc., priority 2011, dated 2014)
Converted amounts (≈) assume the structure as drawn.

Legend:
[1] = system: Septoria tritici (ATCC 26517); assay: Minimum Inhibitory Concentration (MIC) vs. Septoria tritici; type: cell-based; details: Zymoseptoria tritici, ATCC26517, 168 h; 50% reduction in growth of S. tritici; 22° C., seven days; read-out: Septoria Rating (MIC)
Description: C. Minimum Inhibitory Concentration (MIC) vs. Septoria tritici Compounds were assessed for their ability to inhibit the growth of a common strain of the fungal plant pathogen Septoria tritici (ATCC 26517) using a procedure based on a Clinical and Laboratory Standards Institute (CLSI) microdilution assay protocol for filamentous fungi. Stock solutions of the test compounds and standards were prepared in DMSO at 6400 μg/mL. Each stock solution was used to prepare a 2-fold dilution series ranging from 16 to 0.016 μg/mL (total of 11 compound concentrations) in RPMI-1640 (Roswell Park Memorial Institute) medium containing 3-(N-morpholino)propanesulfonic acid (MOPS) buffer and 2% DMSO. A 100 μL aliquot of the dilutions was added to columns 1 (16 μg/mL compound) through 11 (0.016 μg/mL compound) of a 96-well microtiter plate. This format was replicated in a second row of the microtiter plate. Thus, each microtiter plate could include 11 concentrations of four test or control compounds replicated twice. A 100 μL aliquot of RPMI-1640/MOPS/2% DMSO medium was added to column 12 (no compound control) of the microtiter plate. A fresh culture of S. tritici was used to prepare a solution of approximately 5×10^4 colony-forming units per milliliter (cfu/mL) in RPMI/MOPS medium without DMSO. A 100 μL aliquot of this solution was added to all 96 wells in the microtiter plate. […] The assay plates were incubated at 22° C. for seven days in the dark without shaking. […] In each case of Table 3, the Septoria rating scale is as follows: […]

[2] = system: Puccinia recondita tritici = Puccinia triticina; assay: Fungicidal activity vs. leaf rust on wheat plants; type: in vivo; details: 50 ppm spray on wheat (Yuma), inoculated the following day, evaluated 7-9 days later; read-out: Puccinia Rating (% Disease Control @ 50 ppm)
Excerpt: D. Evaluation of Fungicidal Activity Vs. Leaf Rust (Causal Agent Puccinia recondita Tritici=Puccinia triticina; Bayer code PUCCRT). […] Each pot contained 3-8 seedlings. These plants were sprayed until wet with the formulated test compounds. The compounds were formulated at 50 ppm in 10 vol. % acetone plus 90 vol. % Triton X water (deionized water 99.99 wt %+0.01 wt % Triton X100), giving a “formulated test compound.” Formulated test compounds were applied to plants using a turn table sprayer fitted with two opposing air atomization nozzles which delivered approximately 1500 L/ha of spray volume. On the following day, the leaves were inoculated with an aqueous spore suspension of Puccinia recondita tritici and the plants were kept in high humidity overnight to permit spores to germinate and infect the leaf. The plants were then transferred to a greenhouse until disease developed on untreated control plants. Disease severity was evaluated 7-9 days later, depending on the speed of disease development. In each case of Table 3, the Puccinia rating scale is as follows: […]

SMILES | MIC [1] [µg/mL] | pest or weed control at 50 ppm [2] [%]
OC(Cn1cnnn1)(c1ccc(F)cc1F)C(F)(F)c1ccc(OCc2ccccn2)cn1 (stereo not shown) [Compound 37, 2-(2,4-Difluorophenyl)-1,1-difluoro-1-(5-(pyridin-2-ylmethoxy)pyridin-2-yl)-3-(1H-tetrazol-1-yl)propan-2-ol] | 0.5 to 1.5 (≈ 1.09 to 3.26 µM) | 80 to 100
OC(Cn1cnnn1)(c1ccc(F)cc1F)C(F)(F)c1ccc(OCc2ccc(C(F)(F)F)cc2)cn1 (stereo not shown) [Compound 22, 2-(2,4-Difluorophenyl)-1,1-difluoro-3-(1H-tetrazol-1-yl)-1-(5-((4-(trifluoromethyl)benzyl)oxy)pyridin-2-yl)propan-2-ol] | ≤ 0.5 | 80 to 100
OC(Cn1cnnn1)(c1ccc(F)cc1F)C(F)(F)c1ccc(Oc2ccc(C(F)(F)F)cn2)cn1 (stereo not shown) [Compound 94, 2-(2,4-difluorophenyl)-1,1-difluoro-3-(1H-tetrazol-1-yl)-1-(5-((5-(trifluoromethyl)pyridin-2-yl)oxy)pyridin-2-yl)propan-2-ol] | ≤ 0.5 | 80 to 100
OC(Cn1cnnn1)(c1ccc(F)cc1F)C(F)(F)c1ccc(OCc2ccc(C(F)(F)F)cc2F)cn1 (stereo not shown) [Compound 24, 2-(2,4-Difluorophenyl)-1,1-difluoro-1-(5-((2-fluoro-4-(trifluoromethyl)benzyl)oxy)pyridin-2-yl)-3-(1H-tetrazol-1-yl)propan-2-ol] | ≤ 0.5 | 80 to 100
CC#CCOc1ccc(C(F)(F)C(O)(Cn2ncnn2)c2ccc(Cl)cc2F)nc1 (stereo not shown) [Compound 64, 1-(5-(But-2-yn-1-yloxy)pyridin-2-yl)-2-(4-chloro-2-fluorophenyl)-1,1-difluoro-3-(2H-tetrazol-2-yl)propan-2-ol] | > 4 | 
OC(Cn1cnnn1)(c1ccc(F)cc1F)C(F)(F)c1ccc(Oc2ccc(C(F)(F)F)nc2)cn1 (stereo not shown) [Compound 111, 2-(2,4-difluorophenyl)-1,1-difluoro-3-(1H-tetrazol-1-yl)-1-(5-((6-(trifluoromethyl)pyridin-3-yl)oxy)pyridin-2-yl)propan-2-ol] | ≤ 0.5 | 
N#Cc1ccc(COc2ccc(C(F)(F)C(O)(Cn3ncnn3)c3ccc(Cl)cc3F)nc2)cc1 (stereo not shown) [Compound 56, 4-(((6-(2-(4-Chloro-2-fluorophenyl)-1,1-difluoro-2-hydroxy-3-(2H-tetrazol-2-yl)propyl)pyridin-3-yl)oxy)methyl)benzonitrile] | 1.5 to 4 (≈ 2.99 to 7.99 µM) | 
N#Cc1ccc(Oc2ccc(C(F)(F)C(O)(Cn3ncnn3)c3ccc(F)cc3F)nc2)c(F)c1 (stereo not shown) [Compound 90, 4-((6-(2-(2,4-Difluorophenyl)-1,1-difluoro-2-hydroxy-3-(2H-tetrazol-2-yl)propyl)pyridin-3-yl)oxy)-3-fluorobenzonitrile] | 1.5 to 4 (≈ 3.07 to 8.19 µM) | 
OC(Cn1ccnn1)(c1ccc(F)cc1F)C(F)(F)c1ccc(OCc2cccc(F)c2F)cn1 (stereo not shown) [Compound 44, 1-(5-((2,3-Difluorobenzyl)oxy)pyridin-2-yl)-2-(2,4-difluorophenyl)-1,1-difluoro-3-(1H-1,2,3-triazol-1-yl)propan-2-ol] | 1.5 to 4 (≈ 3.03 to 8.09 µM) | 
N#Cc1ccc(COc2ccc(C(F)(F)C(O)(Cn3ncnn3)c3ccc(F)cc3F)nc2)c(F)c1 (stereo not shown) [Compound 58, 4-(((6-(2-(2,4-Difluorophenyl)-1,1-difluoro-2-hydroxy-3-(2H-tetrazol-2-yl)propyl)pyridin-3-yl)oxy)methyl)-3-fluorobenzonitrile] | 1.5 to 4 (≈ 2.99 to 7.96 µM) | 
OC(Cn1cnnn1)(c1ccc(F)cc1F)C(F)(F)c1ccc(OCc2cccc(OCC(F)(F)F)c2)cn1 (stereo not shown) [Compound 25, 2-(2,4-Difluorophenyl)-1,1-difluoro-3-(1H-tetrazol-1-yl)-1-(5-((3-(2,2,2-trifluoroethoxy)benzyl)oxy)pyridin-2-yl)propan-2-ol] | ≤ 0.5 | 

More lines, main results first:

MIC [1] [µg/mL] | SMILES | pest or weed control at 50 ppm [2] [%]
≤ 0.5 | OC(Cn1cnnn1)(c1ccc(F)cc1F)C(F)(F)c1ccc(Oc2ncc(Br)cn2)cn1 (stereo not shown) [Compound 99, 1-(5-((5-bromopyrimidin-2-yl)oxy)pyridin-2-yl)-2-(2,4-difluorophenyl)-1,1-difluoro-3-(1H-tetrazol-1-yl)propan-2-ol] | 80 to 100
≤ 0.5 | N#Cc1ccc(CSc2ccc(C(F)(F)C(O)(Cn3cnnn3)c3ccc(F)cc3F)nc2)c(F)c1 (stereo not shown) [Compound 15, 4-(((6-(2-(2,4-Difluorophenyl)-1,1-difluoro-2-hydroxy-3-(1H-tetrazol-1-yl)propyl)pyridin-3-yl)thio)methyl)-3-fluorobenzonitrile] | 40 to 59
≤ 0.5 | OC(Cn1cnnn1)(c1ccc(F)cc1F)C(F)(F)c1ccc(Oc2ccc(Cl)cc2)cn1 (stereo not shown) [Compound 7, 1-(5-(4-Chlorophenoxy)pyridin-2-yl)-2-(2,4-difluorophenyl)-1,1-difluoro-3-(1H-tetrazol-1-yl)propan-2-ol] | 80 to 100
≤ 0.5 | N#Cc1cnc(Oc2ccc(C(F)(F)C(O)(Cn3cnnn3)c3ccc(F)cc3F)nc2)s1 (stereo not shown) [Compound 107, 2-((6-(2-(2,4-difluorophenyl)-1,1-difluoro-2-hydroxy-3-(1H-tetrazol-1-yl)propyl)pyridin-3-yl)oxy)thiazole-5-carbonitrile] | < 40
≤ 0.5 | N#Cc1cccc(COc2ccc(C(F)(F)C(O)(Cn3cnnn3)c3ccc(F)cc3F)nc2)c1F (stereo not shown) [Compound 67, 3-(((6-(2-(2,4-Difluorophenyl)-1,1-difluoro-2-hydroxy-3-(1H-tetrazol-1-yl)propyl)pyridin-3-yl)oxy)methyl)-2-fluorobenzonitrile] | 80 to 100
≤ 0.5 | OC(Cn1cnnn1)(c1ccc(F)cc1F)C(F)(F)c1ccc(OCc2ccc(F)cc2F)cn1 (stereo not shown) [Compound 2, 1-(5-(2,4-Difluorobenzyloxy)pyridin-2-yl)-2-(2,4-difluorophenyl)-1,1-difluoro-3-(1H-tetrazol-1-yl)propan-2-ol] | 80 to 100
≤ 0.5 | OC(Cn1cnnn1)(c1ccc(F)cc1F)C(F)(F)c1ccc(OCc2ccnc(Cl)c2)cn1 (stereo not shown) [Compound 117, 1-(5-((2-chloropyridin-4-yl)methoxy)pyridin-2-yl)-2-(2,4-difluorophenyl)-1,1-difluoro-3-(1H-tetrazol-1-yl)propan-2-ol] | 80 to 100
≤ 0.5 | OC(Cn1cnnn1)(c1ccc(F)cc1F)C(F)(F)c1ccc(OCc2cc(F)cc(F)c2)cn1 (stereo not shown) [Compound 35, 1-(5-((3,5-Difluorobenzyl)oxy)pyridin-2-yl)-2-(2,4-difluorophenyl)-1,1-difluoro-3-(1H-tetrazol-1-yl)propan-2-ol] | 80 to 100
≤ 0.5 | OC(Cn1cnnn1)(c1ccc(F)cc1F)C(F)(F)c1ccc(OCc2ccc(F)c(F)c2)cn1 (stereo not shown) [Compound 28, 1-(5-((3,4-Difluorobenzyl)oxy)pyridin-2-yl)-2-(2,4-difluorophenyl)-1,1-difluoro-3-(1H-tetrazol-1-yl)propan-2-ol] | 80 to 100
≤ 0.5 | OC(Cn1cnnn1)(c1ccc(F)cc1F)C(F)(F)c1ccc(OCc2cccc(C(F)(F)F)c2)cn1 (stereo not shown) [Compound 26, 2-(2,4-Difluorophenyl)-1,1-difluoro-3-(1H-tetrazol-1-yl)-1-(5-((3-(trifluoromethyl)benzyl)oxy)pyridin-2-yl)propan-2-ol] | 80 to 100
≤ 0.5 | OC(Cn1cnnn1)(c1ccc(F)cc1F)C(F)(F)c1ccc(Oc2ccccc2F)cn1 (stereo not shown) [Compound 88, 2-(2,4-Difluorophenyl)-1,1-difluoro-1-(5-(2-fluorophenoxy)pyridin-2-yl)-3-(1H-tetrazol-1-yl)propan-2-ol] | 80 to 100
